# Earlier results in patent US11752221B2, “Brush-arm star polymer imaging agents and uses thereof” (priority 2017, dated 2023).
# Several values for one entry are separate records, joined by “and”; a condition that tells them apart may be missing. Equal values may be shown once. Read-outs that look alike come from different tables or passages of the source.
# How the values were obtained:
# [1] = 0.2 mM nitroxide, 4.0 mM Asc
# [2] = earlier studies
# [3] = tested on: subcutaneous C26 tumors; conditions: 0.23 mmol Gd/kg iv dose, after 4 hours
compound,measurement,setting,value
"CC1(C)CC(C(=O)O)C(C)(C)N1[O] (stereo not shown) [3-CP, 3-carboxy-2,2,5,5-tetramethyl-1-pyrrolidinyloxy]",Initial kinetics (<1 h) k × 10^4,"[1]; 0.0 mM GSH, data used IPH",636.8 M^−1 s^−1 and 624.5 M^−1 s^−1 and 614.8 M^−1 s^−1
same,Initial kinetics (<1 h) k′ × 10^4,"[1]; 0.0 mM GSH, data used IPH",2.547 s^−1 and 2.498 s^−1 and 2.459 s^−1
same,Initial kinetics Avg k × 10^4,"[1]; 0.0 mM GSH, data used IPH",625 ± 22 M^−1 s^−1
same,Initial kinetics (<1 h) k × 10^4,"[1]; 0.0 mM GSH, data used PH",636.0 M^−1 s^−1 and 599.0 M^−1 s^−1 and 597.3 M^−1 s^−1
same,Initial kinetics (<1 h) k′ × 10^4,"[1]; 0.0 mM GSH, data used PH",2.504 s^−1 and 2.396 s^−1 and 2.389 s^−1
same,Initial kinetics Avg k × 10^4,"[1]; 0.0 mM GSH, data used PH",611 ± 44 M^−1 s^−1
same,Late kinetics (>1 h) k × 10^4,"[1]; 0.0 mM GSH, data used PH",295 M^−1 s^−1
same,Late kinetics (>1 h) k′ × 10^4,"[1]; 0.0 mM GSH, data used PH",1.18 s^−1
same,Initial kinetics (<1 h) k × 10^4,"[1]; 5.0 mM GSH, data used IPH",608.8 M^−1 s^−1 and 609.6 M^−1 s^−1 and 605.6 M^−1 s^−1
same,Initial kinetics (<1 h) k′ × 10^4,"[1]; 5.0 mM GSH, data used IPH",2.435 s^−1 and 2.438 s^−1 and 2.423 s^−1
same,Initial kinetics Avg k × 10^4,"[1]; 5.0 mM GSH, data used IPH",608.0 ± 4.2 M^−1 s^−1
same,Initial kinetics (<1 h) k × 10^4,"[1]; 5.0 mM GSH, data used PH",590.3 M^−1 s^−1 and 602.4 M^−1 s^−1 and 615.2 M^−1 s^−1
same,Initial kinetics (<1 h) k′ × 10^4,"[1]; 5.0 mM GSH, data used PH",2.361 s^−1 and 2.410 s^−1 and 2.461 s^−1
same,Initial kinetics Avg k × 10^4,"[1]; 5.0 mM GSH, data used PH",602.6 ± 25 M^−1 s^−1
same,r1 (per-chex for chex polymers),[2],0.14 mM⁻¹ s⁻¹
O=C([O-])CN(CCN(CC(=O)[O-])CC(=O)O)CCN(CC(=O)[O-])CC(=O)O.[Gd+3] [Gd-DTPA],contrast enhancement of tumor,[3],negligible contrast enhancement
